The results in this text go back to patent US20100190719A1, “PEPTIDES AS ANTIMICROBIAL AGENTS TOWARDS CAMPYLOBACTER SPP” (priority 2007, published 2010).

In assay [1] the test system is C. jejuni strain C338. The assay can be described thus: microdilution susceptibility test, inhibition of growth of C. jejuni in vitro. Particulars: for % inhibition of growth: C. jejuni strain C338, phage-displayed peptide. The assay is classed as cell-based, Campylobacter jejuni. The protocol:
Representative affinity-selected phage peptides were tested for their ability to inhibit the growth of C. jejuni strains in vitro. Each phage clone was amplified by E. coli infection and twice purified by PEG precipitation and resuspended in TBS buffer (pH 7.5). Phage concentrations were calculated as […] using the ultraviolet (UV) absorbance measurements on a spectrophotometer (Smith & Scott, 1993). […] In brief: each of the C. jejuni strains was resuspended to an OD595 of 0.2 in Nutrient Broth and then diluted to 10^4-10^5 CFU/mL in Nutrient Broth containing Campylobacter growth supplement. […] A microaerophilic environment was provided by GasPak E2 Campy Pouches (BD Biosciences). After 24-48 h at 37° C. without shaking, the optical densities of the bacterial cultures were measured at OD595 nm in a plate reader (Victor2, Perkin Elmer).
(§1) The number of viable bacteria in the 96 well plates was determined by performing colony counts on the diluted inoculum and plating onto blood agar plates. Colony counts on blood agar plates were also used to determine the initial inoculum of bacteria used in the assay. A Gram Stain Kit was used to check the morphology of C. jejuni after incubation with the phage peptides.
Background: Dilution methods test growth across graded concentrations, often in twofold steps.

Assay [2] deals with C. jejuni strain C338. The assay can be described thus: morphology of C. jejuni after incubation with phage peptides (Gram stain). The assay is classed as cell-based, Campylobacter jejuni. Particulars: normal morphology is spiral-shaped. The protocol: The morphology has changed to thread-shaped. • B. Strain C338 incubated with unselected phage library showing the normal spiral-shaped morphology • C.
as §1

The term % inhibition of growth denotes the drop in the measured response relative to a control, in per cent. A low value points to little suppression. For “FLIDSPLASIGPTSM (f88-4/15-mer peptide phage-display library) [CP3/3]”, the “% inhibition of growth” value in assay [1] is given as 99.3%.

For “GRFLIRVTSSPLGPD (f88-4/15-mer peptide phage-display library) [CP3/1]”, in assay [2], the “morphology of C. jejuni after incubation with phage-displayed peptide” value is given as “thread-shaped”. Further, the “% inhibition of growth” value in assay [1] was determined as 96.7%. In addition, the “inhibition of growth of C. jejuni” value worked out at 97% in assay [1] (initial bacterial inoculum 2.8×10^4 CFU/mL) and 89% in assay [1] (initial bacterial inoculum 2.8×10^4 CFU/mL as printed (second value for CP3/1)).

Take “TCNLSDYTLPRARVL (f88-4/15-mer peptide phage-display library) [BT3/4]”: the “% inhibition of growth” value in assay [1] came to 60%. Moreover, the “inhibition of growth of C. jejuni in vitro (in words)” value in assay [1] (bacterial concentration of 1×10^4 CFU/mL) is reported as “inhibited the growth”.

Regarding “TGSGLYLHQMVYLYQ (f88-4/15-mer peptide phage-display library) [CP3/2]”, the “% inhibition of growth” value in assay [1] is reported as 92%. For the same sequence, the “inhibition of growth of C. jejuni” value in assay [1] (bacterial inoculum 1.6×10^5 CFU/mL) worked out at 87%.

With “VPESIHKASLVCYRF (f88-4/15-mer peptide phage-display library) [BP3/5]”, the “morphology of C. jejuni after incubation with phage-displayed peptide” value in assay [2] was “coccoid shaped”.
